Consider one molecule from patent publication US20050064412A1, “Method of evaluating degree of canceration of mammal-origin specimen” (priority 2001, published 2005).

Common to all, as to type: cell-based, human
Assay [1] concerns 3OST2 gene. Description: Methylation-specific PCR of 3OST2 gene after culture with methylation inhibitor (MCF-7). The note with it: breast cancer cell line MCF-7 cultured in the presence of 6 μM 5Aza-dC, FIG. 2. The method, then: (§1) Two kinds of human-derived breast cancer cell lines (MCF-7, MDA-MB-468) and human-derived normal mammary gland epithelial cell (HMEC) were seeded at a density of 3 to 6×10^5 cells/10 cm plate, and cultured using RPMI or DMEM or an exclusively used medium. On the first day after seeding, 5-aza-2′-deoxytidine (manufactured by sigma) (hereinafter, referred to as 5Aza-dC) which is a methylation inhibitor was added to a medium to give the concentration of 0.5 to 6 μM. Twenty four hours after addition of 5Aza-Dc, the medium was exchanged with the aforementioned medium to which no 5Aza-dC was added, and culturing was continued. Then, on the third day after seeding, 5Aza-dC was added to the medium similarly. On the fourth day after seeding, cells were recovered, and a genomic DNA was extracted and recovered from the recovered cells according to the same manner as that of Example 1. Further, according to the same manner as that of Example 2, a RNA was extracted and recovered.
(§2) The extracted and recovered genomic DNA was treated with sodium bisulfite according to the same manner as that of Example 1. The resulting DNA was used as a template and PCR was performed using unmethylation-specific primers U2 and U3, or methylation-specific primers M3 and M4 shown below. […]

Assay [2] concerns 3OST2 gene. Description: RT-PCR of 3OST2 gene mRNA after culture with methylation inhibitor (MDA-MB-468). The conditions noted are these: FIG. 3. The method, then: The thus obtained RNA was treated with DNaseI (Life Technologies), and this was used as a template and Superscript II (Life Technologies) was used to synthesize a cDNA according to a protocol attached to the enzyme. By performing PCR using the synthesized cDNA as a template and using 3OST2 S and 3OST2 A shown below as a primer pair, a DNA derived from a mRNA of 3OST2 gene was amplified. Thereupon, as a control by performing PCR using the aforementioned cDNA as a template and using GAPDH S and GAPDH A solution below as a primer pair, a DNA derived from a mRNA of a GAPDH gene was amplified.
A reaction solution PCR was used which was obtained by mixing 20 ng of a cDNA as a template, each 0.25 μl of two kinds of 25 pmol/μl aforementioned primer solution, 0.5 μl of 10 mM dNTP, 2.5 μl of 10× buffer (100 mM Tris-HCl pH 8.3, 500 mM KCl, 20 mM MgCl2) and 0.15 μl of a 5 U/μl thermostable DNA polymerase, and adding sterilized ultrapure water thereto to an amount of solution of 25 μl. When a DNA derived from mRNA of 3OST2 gene was amplified, PCR was performed at the conditions under which the reaction solution was retained at 94° C. for 10 minutes, 28 cycles of temperature maintenance were performed, each cycle was 30 seconds at 94° C., 30 seconds at 45° C. and 60 seconds at 72° C., and a temperature was maintained at 72° C. for 10 minutes. […]

Assay [3] concerns 3OST2 gene. The assay can be described thus: Methylation-specific PCR of 3OST2 gene after culture with methylation inhibitor (MDA-MB-468). The note with it: breast cancer cell line MDA-MB-468 cultured in the presence of 0.5 μM 5Aza-dC, FIG. 2. The method, then: as §1, §2

In the case of `Nc1ncn([C@H]2C[C@H](O)[C@@H](CO)O2)c(=O)n1` [5Aza-dC, 5-aza-2′-deoxytidine], the “methylation status of cytosines 1260, 1271, 1281, 1410, 1418, 1423 and 1425 of SEQ ID NO: 1 (3OST2 gene)” value is “not methylated in genomic DNAs of approximately half of cells” in the assay on 3OST2 gene [1] and “not methylated in almost genomic DNAs” with 3OST2 gene [3]. The “DNA (161 bp) derived from a mRNA of 3OST2 gene (expression)” value in the assay with 3OST2 gene [2] (MAD-MB-468 cultured in the presence of 0.5 μM 5Aza-dC) and in the assay on 3OST2 gene [2] (MAD-MB-468 cultured in the presence of 1 μM 5Aza-dC) was “detected” in each case.
